Experimental data: USRE38257E1, “Piperdine derivatives and hypotensives containing the same” (Ajinomoto Co., Inc., priority 1988, dated 2003)

Test system: male spontaneously hypertensive rats
Test: Decrease in systolic blood pressure in spontaneously hypertensive rats after intravenous bolus injection, indirect (tail-cuff) method
Type: in vivo, rat
Details: for Decrease in systolic blood pressure (mmHg) time after administration (hour) 0.5: 0.5 hour after administration; for Decrease in systolic blood pressure (mmHg) time after administration (hour) 4: 4 hours after administration
Experimental: As test animals, four male spontaneously hypertensive rats (weight 400 to 440 g) that were sufficiently adapted for feeding and in which hypertension was confirmed were used.
Physiological saline aqueous solution containing 2.5% Nicolle and 2.5% ethanol of sample was intravenously administered by bolus injection at a dose of 1 ml per 1 kg of body weight. Systolic blood pressure after administration was measured by the indirect (tail-cuff) method.

**Q.** What does the source list for CC(=O)Oc1cccc(C=CCN2CCC(=C3c4ccccc4C=Cc4ccccc43)CC2)c1.Cl [Example 368, 1-(3-Acetoxycinnamyl)-4-(5H-Dibenzo[a,d]cyclohepten-5-ylidene)piperidine hydrochloride]?
**A.** Decrease in systolic blood pressure (mmHg) time after administration (hour) 0.5 (dose 3 mg/kg i.v. bolus): −110 mmHg; Decrease in systolic blood pressure (mmHg) time after administration (hour) 4 (dose 3 mg/kg i.v. bolus): −68 mmHg

**Q.** “1-Acetoxy-4-(4-(5H-dibenzo[a,d]cyclohepten-5-ylidene)-1-piperidinyl)-(3,4-dimethoxy)phenylButane hydroxybutane hydrochloride [Example 206]” was tested. Which “Decrease in systolic blood pressure (mmHg) time after administration (hour) 0.5” value (“Decrease in systolic blood pressure … (hour) 0.5” for short) (dose 10 mg/kg i.v. bolus) did it give?
**A.** Its value is −61 mmHg.

**Q.** And the “Decrease in systolic blood pressure (mmHg) time after administration (hour) 4” value (shortened to “Decrease in systolic blood pressure … (hour) 4”) (dose 10 mg/kg i.v. bolus)?
**A.** Its value is −27 mmHg.

**Q.** For Cl.O=C1Cc2ccccc2C(=C2CCN(CCCCC3CCCCC3)CC2)c2ccsc21 [Example 180], which “Decrease in systolic blood pressure … (hour) 0.5” value (dose 10 mg/kg i.v. bolus) is on record?
**A.** The value was −25 mmHg.

**Q.** And the “Decrease in systolic blood pressure … (hour) 4” value (dose 10 mg/kg i.v. bolus)?
**A.** The value was −24 mmHg.

**Q.** Which “Decrease in systolic blood pressure … (hour) 0.5” value (dose 10 mg/kg i.v. bolus) does the source give for Cl.OC(CCCN1CCC(=C2c3ccccc3C=Cc3ccccc32)CC1)c1ccccc1 (stereo not drawn) [Example 101, 4-(4-(5H-Dibenzo[a,d]cyclohepten-5-ylidene)-1-piperidinyl)-1-hydroxy-1-phenylbutane hydrochloride] here?
**A.** The value was −89 mmHg.

**Q.** What about the “Decrease in systolic blood pressure … (hour) 4” value (dose 10 mg/kg i.v. bolus) of the same molecule?
**A.** The value was −14 mmHg.

**Q.** CC(C)C(C#N)(CCCN1CCC(=C2c3ccccc3C=Cc3ccccc32)CC1)c1ccc(Cl)c(Cl)c1.Cl (stereo not drawn) [Example 42, 5-(4-(5H-Dibenzo[a,d]cyclohepten-5-ylidene)-1-piperidinyl)-2-(3,4-dichlorophenyl)-2-isopropylvaleronitrile hydrochloride] was tested. Which “Decrease in systolic blood pressure … (hour) 0.5” value (dose 10 mg/kg i.v. bolus) did it give?
**A.** The value was −66 mmHg.

**Q.** What about the “Decrease in systolic blood pressure … (hour) 4” value (dose 10 mg/kg i.v. bolus) of the same molecule?
**A.** The value was −14 mmHg.

**Q.** With C1=Cc2ccccc2C(=C2CCN(CCCc3ccncc3)CC2)c2ccccc21.Cl.Cl [Example 289, 3-(4-(5H-Dibenzo[a,d]cyclohepten-5-ylidene)-1-piperidinyl)-1-(4-pyridyl)propane dihydrochloride] as the molecule, how does the “Decrease in systolic blood pressure … (hour) 0.5” value (dose 3 mg/kg i.v. bolus) read?
**A.** Its value is −20 mmHg.

**Q.** And the “Decrease in systolic blood pressure … (hour) 4” value (dose 3 mg/kg i.v. bolus)?
**A.** Its value is 10 mmHg.

**Q.** How did the “Decrease in systolic blood pressure … (hour) 0.5” value (dose 10 mg/kg i.v. bolus) turn out when CC(=O)OCC1(CCCCN2CCC(=C3c4ccccc4C=Cc4ccccc43)CC2)CCCCC1.Cl [Example 273, 1-Acetoxymethyl-1-(4-(4-(5H-dibenzo[a,d]cyclohepten-5-ylidene)-1-piperidinyl)-1-butyl)cyclohexane hydrochloride] was run?
**A.** The value was −37 mmHg.

**Q.** And the “Decrease in systolic blood pressure … (hour) 4” value (dose 10 mg/kg i.v. bolus)?
**A.** The value was 5 mmHg.

**Q.** Which results are given for Cl.N#CC(CCCN1CCC(=C2c3ccccc3C=Cc3ccccc32)CC1)c1cccc(C(F)(F)F)c1 (stereo not drawn) [Example 59, 5-(4-(5H-Dibenzo[a,d]cyclohepten-5-ylidene)-1-piperidinyl)-2-(3-trifluoromethylphenyl)valeronitrile hydrochloride]?
**A.** Decrease in systolic blood pressure (mmHg) time after administration (hour) 0.5 (dose 10 mg/kg i.v. bolus): −87 mmHg; Decrease in systolic blood pressure (mmHg) time after administration (hour) 4 (dose 10 mg/kg i.v. bolus): −21 mmHg

**Q.** Which results are given for COc1ccc(C(C#N)(CCCN2CCC(=C3c4ccccc4C=Cc4ccccc43)CC2)C(C)C)cc1OC.Cl (stereo not drawn) [Example 31, 5-(4-(5H-Dibenzo[a,d]cyclohepten-5-ylidene)-1-piperidinyl)-2-(3,4-dimethoxyphenyl)-2-isopropylvaleronitrile hydrochloride]?
**A.** Decrease in systolic blood pressure (mmHg) time after administration (hour) 0.5 (dose 10 mg/kg i.v. bolus): −61 mmHg; Decrease in systolic blood pressure (mmHg) time after administration (hour) 4 (dose 10 mg/kg i.v. bolus): −11 mmHg

**Q.** Which results are given for Cc1ccc(CN2CCC(=C3c4ccccc4C=Cc4ccccc43)CC2)cc1.Cl [Example 133, 4-(5H-Dibenzo[a,d]cyclohepten-5-ylidene)-1-(4-methylbenyl)piperidine hydrochloride]?
**A.** Decrease in systolic blood pressure (mmHg) time after administration (hour) 0.5 (dose 3 mg/kg i.v. bolus): −146 mmHg; Decrease in systolic blood pressure (mmHg) time after administration (hour) 4 (dose 3 mg/kg i.v. bolus): −84 mmHg

**Q.** Which results are given for COc1cc(C(=O)N2CCC(=C3c4ccccc4C=Cc4ccccc43)CC2)cc(OC)c1OC [Example 189, 4-(5H-Dibenzo[a,d]cyclohepten-5-ylidene)-1-(3,4,5-trimethoxybenzoyl)piperidine]?
**A.** Decrease in systolic blood pressure (mmHg) time after administration (hour) 0.5 (dose 10 mg/kg i.v. bolus): −72 mmHg; Decrease in systolic blood pressure (mmHg) time after administration (hour) 4 (dose 10 mg/kg i.v. bolus): −15 mmHg

**Q.** With COc1ccc(CCCCN2CCC(=C3c4ccccc4C=Cc4ccccc43)CC2)cc1NC(C)=O.Cl [Example 282, 1-(3-Acetylamino-4-methoxyphenyl)-4-(4-(5H-dibenzo[a,d]cyclohepten-5-ylidene)-1-piperidinyl)butane hydrochloride] as the molecule, how does the “Decrease in systolic blood pressure … (hour) 0.5” value (dose 10 mg/kg i.v. bolus) read?
**A.** Its value is −72 mmHg.

**Q.** What about the “Decrease in systolic blood pressure … (hour) 4” value (dose 10 mg/kg i.v. bolus) of the same molecule?
**A.** The value was −15 mmHg.

**Q.** Which results are given for C1=Cc2ccccc2C(=C2CCN(Cc3cc4ccccc4[nH]3)CC2)c2ccccc21.Cl [Example 385, 4-(5H-Dibenzo[a,d]cyclohepten-5-ylidene)-1-(2-indolylmethyl)piperidine hydrochloride]?
**A.** Decrease in systolic blood pressure (mmHg) time after administration (hour) 0.5 (dose 10 mg/kg i.v. bolus): −123 mmHg; Decrease in systolic blood pressure (mmHg) time after administration (hour) 4 (dose 10 mg/kg i.v. bolus): −96 mmHg

**Q.** How did the “Decrease in systolic blood pressure … (hour) 0.5” value (dose 10 mg/kg i.v. bolus) turn out when Cl.FC(F)(F)c1cccc(CN2CCC(=C3c4ccccc4C=Cc4ccccc43)CC2)c1 [Example 115, 4-(5H-Dibenzo[a,d]cyclohepten-5-ylidene)-1-(3-trifluoromethylbenzyl)piperidine hydrochloride] was run?
**A.** Its value is −53 mmHg.

**Q.** And the “Decrease in systolic blood pressure … (hour) 4” value (dose 10 mg/kg i.v. bolus)?
**A.** The value was −19 mmHg.

**Q.** How did the “Decrease in systolic blood pressure … (hour) 0.5” value (dose 10 mg/kg i.v. bolus) turn out when CCCCCCCCCCCCCCN1CCC(=C2c3ccccc3C=Cc3ccccc32)CC1.Cl [Example 5, 4-(5H-Dibenzo[a,d]cyclohepten-5-ylidene)-1-tetradecylpiperidine hydrochloride] was run?
**A.** Its value is −56 mmHg.

**Q.** And the “Decrease in systolic blood pressure … (hour) 4” value (dose 10 mg/kg i.v. bolus)?
**A.** The value was −20 mmHg.

**Q.** What does the source list for CC(C)C(C#N)(CCCN1CCC(=C2c3ccccc3C=Cc3ccccc32)CC1)c1cccc(C(F)(F)F)c1.Cl (stereo not drawn) [Example 60, 5-(4-(5H-Dibenzo[a,d]cyclohepten-5-ylidene)-1-piperidinyl)-2-isopropyl-2-(3-trifluoromethylphenyl)valeronitrile hydrochloride]?
**A.** Decrease in systolic blood pressure (mmHg) time after administration (hour) 0.5 (dose 10 mg/kg i.v. bolus): −121 mmHg; Decrease in systolic blood pressure (mmHg) time after administration (hour) 4 (dose 10 mg/kg i.v. bolus): −48 mmHg

**Q.** With Cl.O=C(NCCN1CCCCC1=C1c2ccccc2C=Cc2ccccc21)c1cccc([N+](=O)[O-])c1 [Example 290, N-(2-(5H-Dibenzo[a,d]cyclohepten-5-ylidene)-1-piperidinyl)ethyl-3-nitrobenzamide hydrochloride] as the molecule, how does the “Decrease in systolic blood pressure … (hour) 0.5” value (dose 3 mg/kg i.v. bolus) read?
**A.** The value was −15 mmHg.

**Q.** What about the “Decrease in systolic blood pressure … (hour) 4” value (dose 3 mg/kg i.v. bolus) of the same molecule?
**A.** Its value is 15 mmHg.

**Q.** Which results are given for COc1cc(CN2CCC(=C3c4ccccc4C=Cc4ccccc43)CC2)cc(OC)c1OC [Example 188, 4-(5H-Dibenzo[a,d]cyclohepten-5-ylidene)-1-(3,4,5-trimethoxybenzyl)piperidine]?
**A.** Decrease in systolic blood pressure (mmHg) time after administration (hour) 0.5 (dose 10 mg/kg i.v. bolus): −94 mmHg; Decrease in systolic blood pressure (mmHg) time after administration (hour) 4 (dose 10 mg/kg i.v. bolus): −12 mmHg
